Biological target: T1, Endothelial lipase (Homo sapiens, UniProt Q9Y5X9)
T1 sequence (Q9Y5X9 whole entry): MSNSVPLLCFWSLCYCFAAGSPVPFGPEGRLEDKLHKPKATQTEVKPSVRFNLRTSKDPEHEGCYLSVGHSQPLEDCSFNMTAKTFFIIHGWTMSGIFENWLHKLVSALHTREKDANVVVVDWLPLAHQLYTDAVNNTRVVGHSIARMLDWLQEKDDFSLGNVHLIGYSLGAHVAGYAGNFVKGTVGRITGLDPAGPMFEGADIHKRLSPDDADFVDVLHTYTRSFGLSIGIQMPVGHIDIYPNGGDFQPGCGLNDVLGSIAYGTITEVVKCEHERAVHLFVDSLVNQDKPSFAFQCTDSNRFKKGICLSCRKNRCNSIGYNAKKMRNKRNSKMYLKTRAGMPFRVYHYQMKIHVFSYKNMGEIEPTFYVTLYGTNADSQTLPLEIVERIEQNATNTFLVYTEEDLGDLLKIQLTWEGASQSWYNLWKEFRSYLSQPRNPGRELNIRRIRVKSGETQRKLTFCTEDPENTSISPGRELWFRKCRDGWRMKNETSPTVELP
Assay: Enzyme Assay: For characterization of the enzymatic activity of endothelial lipase and the effect of inhibitors, the phospholipase-specific substrate 1,2-bis(4,4-difluoro-5,7-dimethyl-4-bora-3a,4a-diaza-s-indacene-3-undecanoyl)-sn-glycero-3-phosphocholine (manufacturer: Molecular Probes) was used. Hydrolysis of the A1 ester bond of this phospholipid by the enzyme releases the fluorescent dye Bodipy, which can be detected by measuring the fluorescence after separation by thin-layer chromatography on an HPTLC plate (silica gel 60, Merck) or directly in the reaction vessel. To prepare the substrate solution, 100 ug of 1,2-bis(4,4-difluoro-5,7-dimethyl-4-bora-3a,4a-diaza-s-indacene-3-undecanoyl)-sn-glycero-3-phosphocholine (manufacturer: Molecular Probes) were dissolved in 100 ul of DMSO and taken up in 2.4 mg of tripalmitin (Sigma) in 393 ul of chloroform which contained 20 mg/ml DOPcholine (1,2-dioleoyl-sn-glycero-3-phosphocholine).

- IC50: 138 nM
Structure (SMILES): O=C(NCc1ccccc1OC(F)F)n1sc2ncccc2c1=O

— ChEMBL document CHEMBL3639022, “Azolopyridin-3-one derivatives as inhibitors of lipases and phospholipases” (2015)
